Laboratory results taken from EP1566177A1, “The use of bisphosphonates for treating skin by stimulating of collagen synthesis” (Tigen Biotech Co., Ltd., priority 2004, dated 2005).

Key:
Type in all cases: cell-based
[1] = tested on: fibroblasts isolated from human dermis; assay: Western blot analysis of type 1 collagen expression, two-dimensional culture of dermal fibroblasts
Source text: The levels of type 1 collagen in the 3-week cultured control group (3WC) and the 3-week cultured test group (3WR), which had been collected in Example 1-2), were compared with each other. For this purpose, each sample was subjected to Western blot analysis. In the Western blot analysis, each sample was electrophoresed on 8% SDS-PAGE gel, and the resulting collagen band was transferred to a nitrocellulose membrane and then treated with type 1 collagen monoclonal antibody (Abcam, Cambridge, UK) (see FIG. 2). In the Western blot analysis, actin was also used as a positive control group.
Fibroblasts were isolated from skin dermis and subcultured, in the same manner as in Example 2. Then, the isolated fibroblasts were cultured in the second culture medium as described above under the same conditions for 2 days. Then, the cultured fibroblasts were supplied with a second culture medium containing 100 nM pamidronate at 3-day intervals and cultured in the medium for each period of 1 week, 2 weeks and 3 weeks. […]
RT-PCR on each of the 1-week, 2-week and 3-week cultured control groups, the 1-week, 2-week and 3-week cultured test group administered with pamidronate, and the 1-week, 2-week and 3-week cultured positive control group administered with vitamin. […] The mRNA levels of type 1 collagen in the samples, as measured in the RT-PCR reactions, were shown in FIG. 4 for comparison with each other. […]

[2] = tested on: fibroblasts isolated from human dermis; assay: RT-PCR analysis of type 1 collagen mRNA level, two-dimensional culture of dermal fibroblasts
Method: Namely, total mRNA to be used in cDNA synthesis was isolated from the cells of the control and test groups using an RNeasy mini kit (QIAGEN, CA, USA). Then, the amount of the isolated total mRNA was calculated by measuring the absorbance at 260nm/280nm using an UV spectrophotometer (Eppendorf, Hamburg, Germany), thus quantifying the extracted mRNA and determining its purity (data not shown). Thereafter, 0.5 µg of the total mRNA was reacted with reverse transcriptase (Promega, WI, USA) using an oligo d(T) primer for one hour at 42 °C and for 5 minutes at 95 °C, and then the reaction was stopped at 4°C, thus synthesizing cDNA. The synthesized cDNA template was subjected to polymerase chain reaction (hereinafter, referred to as "PCR") using complementary primers of 5'-[sequence]-3' (SEQ ID NO: 1) (sense) and 5'-[sequence]-3' (SEQ ID NO: 2) (anti-sense). In the RT-PCR reaction, water was added to a reaction mixture of 0.5 µl of the template, 0.7 µl of each primer (10 pmole/µl) and PCR premix (Bioneer, Korea) to a final volume of 20 µl, and then, the aqueous mixture was pre-denatured at 94°C for 5 minutes using a thermal cycler and then subjected to 25 PCR cycles (each cycle consisting of 30 seconds at 94 °C, 30 seconds at 58 °C, and 30 seconds at 72 °C). Also, in the RT-PCR reaction, glyceraldehyde-3-phosphate dehydrogenase (GAPDH) was used as a positive control.
Then, the isolated fibroblasts were cultured in the second culture medium as described above under the same conditions for 2 days. Then, the cultured fibroblasts were supplied with a second culture medium containing 100 nM pamidronate at 3-day intervals and cultured in the medium for each period of 1 week, 2 weeks and 3 weeks. Also, fibroblasts cultured in a second culture medium containing 1mM vitamin C were used as a positive control group, and fibroblasts cultured in a secondary culture medium containing no vitamin C and pamidronate was used as a control group. […]

[3] = tested on: fibroblasts isolated from human oral epithelium; assay: Western blot analysis of type 1 collagen protein level, two-dimensional culture of oral fibroblasts; details: 100 ng/ml pamidronate together with 1mM vitamin C; 3-week culture (3WR) vs control (3WC)
Method: (§1) The epithelium naturally exuded from a patient who had been undergoing a surgical operation due to oral diseases was mixed with […] DMEM (LG-DMEM, glucose 1g/L, GIBCO, MO, USA) medium, a first culture medium, and the mixture was pre-centrifuged to isolate cells. The cells were ultra-centrifuged using Percoll solution (SIGMA, MD, USA), thus isolating only nucleated cells. The nucleated cells isolated as described above cultured in an incubator under conditions of 5% (v/v) CO2 and 37.5 °C while replacing a second culture medium (high-glucose DMEM medium containing 10% bovine fetal serum) at two-day intervals, and only fibroblasts were isolated from the culture medium.
The isolated fibroblasts were cultured in said second culture medium under the same conditions for 2 days to saturate them. Then, the saturated fibroblasts were cultured in a second culture medium containing 1mM vitamin C and 100 ng/ml pamidronate (Hanlim Pharm. Co., Ltd., Korea) for each period of 1 week, 2 weeks and 3 weeks, while replacing the medium at 3-day intervals. As a control group, a second culture medium containing no vitamin C and pamidronate was used.
The levels of type 1 collagen in the 3-week cultured control group (3WC) and the 3-week cultured test group (3WR), which had been collected in Example 1-2), were compared with each other. […]

[4] = tested on: fibroblasts isolated from human dermis; assay: Three-dimensional culture of dermal fibroblasts on PLGA support, haematoxylin-eosin staining of collagen layer; details: 100 nM pamidronate together with 1 mM vitamin C; 4 weeks; control: vitamin C alone
Method: A given amount of dermal tissue was excised from the skin of three normal persons. The excised human dermis from which an epidermal and fatty layer had been removed was finely cut and treated with collagenase so as to isolate dermis from epidermis. The isolated dermal tissue was cultured in 0.25% trypsin solution at 36 °C for 10 minutes. Then, the culture broth was vortexed to isolate fibroblasts. The isolated cells were collected and washed, and then cultured in a DMEM medium (GIBCO, MO, U.S.A.) containing 10% fetal bovine serum (FBS). At about 70% confluence, they were subcultured.
A PLGA-based, disc-shaped polymer support (Innotech., Korea) with a diameter of 10 mm, a thickness of 3 mm, an average pore size of 300-500 µm and a porosity of 90%, was used in three-dimensional culture. The support was treated with 100 %(v/v), 90 %(v/v), 70 %(v/v) and then 10 %(v/v) ethanol in order, at 4 °C for each treatment, and washed with PBS (phosphate buffered saline) and a second culture medium followed by drying. Next, 100 µl of a suspension of 1 x 10^6 dermal fibroblasts cultured as described above was plated on the support and cultured in a culture dish with a diameter of 60 mm. After two hours, 6 ml of the second culture medium as described above was added to the cells, and the mixture was cultured in a shaking incubator (30rpm). […]

[5] = tested on: fibroblasts isolated from human oral epithelium; assay: RT-PCR analysis of type 1 collagen mRNA level, two-dimensional culture of oral fibroblasts; details: 100 ng/ml pamidronate together with 1mM vitamin C; cultured 1, 2 and 3 weeks (1WR, 2WR, 3WR) vs control medium without both
Method: as §1
The isolated fibroblasts were cultured in said second culture medium under the same conditions for 2 days to saturate them. […]
The collagen mRNA levels of the 1-week cultured control group (1WC), the 2-week cultured control group (2WC), the 3-week cultured control group (3WC), the 1-week cultured test group (1WR), the 2-week cultured test group (2WR) and the 3-week cultured group (3WR), which had been collected in Example 1-2), were measured and compared with each other. […]

## NCCCC(O)(P(=O)(O)O)P(=O)(O)O [alendronate, 4-amino-1-hydroxybutylidene-1,1-bisphospnonic acid]
[1]; alendronate alone, same concentration as pamidronate (100 nM), cultured one week, FIG. 7
  type 1 collagen protein (Western blot): remarkably increased
[2]; alendronate alone, same concentration as pamidronate (100 nM), cultured one week, FIG. 6
  mRNA level of type 1 collagen: remarkably increased

## NCCC(O)(P(=O)(O)O)P(=O)(O)O [pamidronate, 3-amino-1-hydroxypropylidene-1,1-bisphosphonic acid]
[1]; 100 nM pamidronate alone, three weeks of culture, compared with single addition of 1mM vitamin C
  expression level of type 1 collagen: remarkable increase
[3]
  type 1 collagen protein level: synthesized at a remarkably high level
[4]
  layer of collagen adhered to the surface of the PLGA support: much thicker than the case of addition of vitamin C alone
[5]
  mRNA level of type 1 collagen: higher mRNA level than that of the 3-week cultured control group
[2]; 100 nM pamidronate alone, cultured 1, 2 and 3 weeks
  mRNA level of type 1 collagen: high regardless of culture period

## O=C1O[C@H]([C@@H](O)CO)C(O)=C1O [vitamin C]
[2]; 1mM vitamin C alone (positive control), cultured 1, 2 and 3 weeks
  mRNA level of type 1 collagen: increased rapidly in the initial stage of culture, but it was reduced with an increase in culture time
